Reference: patent publication US20260007681A1, “INDOLE DERIVATIVES AS ESTROGEN RECEPTOR DEGRADERS” (REGENTS OF THE UNIVERSITY OF MICHIGAN, priority 2022, published 2026)

Molecular target: ER (Homo sapiens (Human), UniProt P03372)
Assay: Western blot analysis (Compounds B1-B278)
Type: cell-based
Conditions: ER degradation by traditional Western blot; DC50 classes
Method: Western Blot Analysis. The cells that are treated with the compounds are lysed in Radioimmunoprecipitation Assay Protein Lysis and Extraction Buffer (e.g., 25 mmol/L Tris.HCl, pH 7.6, 150 mmol/L NaCl, 1% Nonidet P-40, 1% sodium deoxycholate, and 0.1% sodium dodecyl sulfate) containing proteinase inhibitor cocktail. Equal amounts of total protein are electrophoresed through 10% SDS-polyacrylamide gels after determination of protein concentration by BCA assay. The separated protein bands are transferred onto PVDF membranes and blotted against different antibodies. The blots are scanned, and the band intensities are quantified (e.g., by using GelQuant.NET software provided by biochemlabsolutions.com). The relative mean intensity of target proteins is expressed after normalization to the intensity of glyceraldehyde-3-phosphate dehydrogenase bands.
Western Blot Analysis. Western blot analysis was performed essentially as described previously. The cells treated with indicated compounds were lysed in Radioimmunoprecipitation Assay Protein Lysis and Extraction Buffer (25 mmol/L Tris.HCl, pH 7.6, 150 mmol/L NaCl, 1% Nonidet P-40, 1% sodium deoxycholate, and 0.1% sodium dodecyl sulfate) containing proteinase inhibitor cocktail (Roche Diagnostics, Mannheim, Germany). Equal amounts of total protein were electrophoresed through 10% SDS-polyacrylamide gels after determination of protein concentration by BCA assay (Fisher Scientific, Pittsburgh, PA). The separated protein bands were transferred onto PVDF membranes (GE Healthcare Life Sciences, Marlborough, MA) and blotted against different antibodies, as indicated. The blots were scanned, and the band intensities were quantified using GelQuant.NET software provided by biochemlabsolutions.com. The relative mean intensity of target proteins was expressed after normalization to the intensity of glyceraldehyde-3-phosphate dehydrogenase bands.

Chain of ER (P03372 whole entry): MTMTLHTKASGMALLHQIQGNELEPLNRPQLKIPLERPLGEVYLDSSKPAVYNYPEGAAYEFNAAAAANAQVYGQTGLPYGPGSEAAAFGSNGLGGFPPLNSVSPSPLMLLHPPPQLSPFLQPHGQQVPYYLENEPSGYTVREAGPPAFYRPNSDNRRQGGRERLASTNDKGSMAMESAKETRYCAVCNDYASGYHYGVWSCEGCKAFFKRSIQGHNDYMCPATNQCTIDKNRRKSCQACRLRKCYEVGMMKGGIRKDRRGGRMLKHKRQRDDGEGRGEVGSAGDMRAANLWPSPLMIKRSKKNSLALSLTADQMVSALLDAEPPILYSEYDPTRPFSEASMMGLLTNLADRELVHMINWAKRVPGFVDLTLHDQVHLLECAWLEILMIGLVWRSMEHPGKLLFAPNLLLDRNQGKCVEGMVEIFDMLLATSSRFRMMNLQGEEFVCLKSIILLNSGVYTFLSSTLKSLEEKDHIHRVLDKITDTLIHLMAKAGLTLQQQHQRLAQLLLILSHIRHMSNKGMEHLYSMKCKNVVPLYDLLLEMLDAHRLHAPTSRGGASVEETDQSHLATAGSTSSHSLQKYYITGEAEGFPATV

**Q.** `C[C@H]1Cc2c([nH]c3ccccc23)[C@H](c2c(F)cc(N3CC4(CCN(C(=O)CN5Cc6cc7c(cc6C5)C(=O)N(C5CCC(=O)NC5=O)C7=O)CC4)C3)cc2F)N1CC(F)F` (stereo partly drawn) [Compound B27, 6-(2-(2-(4-((1S,3S)-2-(2,2-difluoroethyl)-3-methyl-2,3,4,9-tetrahydro-1H-pyrido[3,4-b]indol-1-yl)-3,5-difluorophenyl)-2,7-diazaspiro[3.5]nonan-7-yl)-2-oxoethyl)-2-(2,6-dioxopiperidin-3-yl)-6,7-dihydropyrrolo[3,4-f]isoindole-1,3(2H,5H)-dione] was tested. Which “Traditional Western Degradation Potency” value did it give?
**A.** A (“A”: <10 nM)

**Q.** How did the “Traditional Western Degradation Potency” value turn out when `C[C@H]1Cc2c([nH]c3ccccc23)[C@H](c2c(F)cc(N3CC4(CCN(C(=O)CN5Cc6cc7c(cc6C5)C(=O)N(C5CCC(=O)NC5=O)C7)CC4)C3)cc2F)N1CC(F)F` (stereo partly drawn) [Compound B28, 3-(6-(2-(2-(4-((1S,3S)-2-(2,2-difluoroethyl)-3-methyl-2,3,4,9-tetrahydro-1H-pyrido[3,4-b]indol-1-yl)-3,5-difluorophenyl)-2,7-diazaspiro[3.5]nonan-7-yl)-2-oxoethyl)-1-oxo-3,5,6,7-tetrahydropyrrolo[3,4-f]isoindol-2(1H)-yl)piperidine-2,6-dione] was run?
**A.** A (“A”: <10 nM)

**Q.** How did the “Traditional Western Degradation Potency” value turn out when `C[C@@H]1Cc2c([nH]c3ccccc23)[C@@H](c2c(F)cc(N3CCC(N4CCC(CN5Cc6cc7c(cc6C5)C(=O)N(C5CCC(=O)NC5=O)C7)CC4)CC3)cc2F)N1CC(F)F` (stereo partly drawn) [Compound B29, 3-(6-((1′-(4-((1R,3R)-2-(2,2-difluoroethyl)-3-methyl-2,3,4,9-tetrahydro-1H-pyrido[3,4-b]indol-1-yl)-3,5-difluorophenyl)-[1,4′-bipiperidin]-4-yl)methyl)-1-oxo-3,5,6,7-tetrahydropyrrolo[3,4-f]isoindol-2(1H)-yl)piperidine-2,6-dione] was run?
**A.** B (“B”: 10-100 nM)

**Q.** `C[C@@H]1Cc2c([nH]c3ccccc23)[C@@H](c2c(F)cc(N3CCC(N4CCC(N5Cc6cc7c(cc6C5)C(=O)N(C5CCC(=O)NC5=O)C7=O)CC4)CC3)cc2F)N1CC(F)F` (stereo partly drawn) [Compound B30, 6-(1′-(4-((1R,3R)-2-(2,2-difluoroethyl)-3-methyl-2,3,4,9-tetrahydro-1H-pyrido[3,4-b]indol-1-yl)-3,5-difluorophenyl)-[1,4′-bipiperidin]-4-yl)-2-(2,6-dioxopiperidin-3-yl)-6,7-dihydropyrrolo[3,4-f]isoindole-1,3(2H,5H)-dione] was tested. Which “Traditional Western Degradation Potency” value did it give?
**A.** C (“C”: >100 nM)

**Q.** With `C[C@@H]1Cc2c([nH]c3ccccc23)[C@@H](c2c(F)cc(N3CCC(N4Cc5cc6c(cc5C4)C(=O)N(C4CCC(=O)NC4=O)C6=O)CC3)cc2F)N1CC(F)F` (stereo partly drawn) [Compound B31, 6-(1-(4-((1R,3R)-2-(2,2-difluoroethyl)-3-methyl-2,3,4,9-tetrahydro-1H-pyrido[3,4-b]indol-1-yl)-3,5-difluorophenyl)piperidin-4-yl)-2-(2,6-dioxopiperidin-3-yl)-6,7-dihydropyrrolo[3,4-f]isoindole-1,3(2H,5H)-dione] as the compound, how does the “Traditional Western Degradation Potency” value read?
**A.** C (“C”: >100 nM)

**Q.** Which “Traditional Western Degradation Potency” value does the source give for `C[C@@H]1Cc2c([nH]c3ccccc23)[C@@H](c2c(F)cc(N3CCC(CN4Cc5cc6c(cc5C4)C(=O)N(C4CCC(=O)NC4=O)C6=O)CC3)cc2F)N1CC(F)F` (stereo partly drawn) [Compound B32, 6-((1-(4-((1R,3R)-2-(2,2-difluoroethyl)-3-methyl-2,3,4,9-tetrahydro-1H-pyrido[3,4-b]indol-1-yl)-3,5-difluorophenyl)piperidin-4-yl)methyl)-2-(2,6-dioxopiperidin-3-yl)-6,7-dihydropyrrolo[3,4-f]isoindole-1,3(2H,5H)-dione] here?
**A.** C (“C”: >100 nM)

**Q.** Which “Traditional Western Degradation Potency” value does the source give for `C[C@@H]1Cc2c([nH]c3ccccc23)[C@@H](c2c(F)cc(N3CCC(N4CCC(CC(=O)N5Cc6cc7c(cc6C5)C(=O)N(C5CCC(=O)NC5=O)C7=O)CC4)CC3)cc2F)N1CC(F)F` (stereo partly drawn) [Compound B33, 6-(2-(1′-(4-((1R,3R)-2-(2,2-difluoroethyl)-3-methyl-2,3,4,9-tetrahydro-1H-pyrido[3,4-b]indol-1-yl)-3,5-difluorophenyl)-[1,4′-bipiperidin]-4-yl)acetyl)-2-(2,6-dioxopiperidin-3-yl)-6,7-dihydropyrrolo[3,4-f]isoindole-1,3(2H,5H)-dione] here?
**A.** A (“A”: <10 nM)

**Q.** Which “Traditional Western Degradation Potency” value does the source give for `C[C@@H]1Cc2c([nH]c3ccccc23)[C@@H](c2c(F)cc(N3CCC(N4CCC(CC(=O)N5Cc6cc7c(cc6C5)C(=O)N(C5CCC(=O)NC5=O)C7)CC4)CC3)cc2F)N1CC(F)F` (stereo partly drawn) [Compound B34, 3-(6-(2-(1′-(4-((1R,3R)-2-(2,2-difluoroethyl)-3-methyl-2,3,4,9-tetrahydro-1H-pyrido[3,4-b]indol-1-yl)-3,5-difluorophenyl)-[1,4′-bipiperidin]-4-yl)acetyl)-1-oxo-3,5,6,7-tetrahydropyrrolo[3,4-f]isoindol-2(1H)-yl)piperidine-2,6-dione] here?
**A.** A (“A”: <10 nM)

**Q.** `C[C@@H]1Cc2c([nH]c3ccccc23)[C@@H](c2c(F)cc(N3CCC(N4CCN(CC(=O)N5Cc6cc7c(cc6C5)C(=O)N(C5CCC(=O)NC5=O)C7=O)CC4)CC3)cc2F)N1CC(F)F` (stereo partly drawn) [Compound B35, 6-(2-(4-(1-(4-((1R,3R)-2-(2,2-difluoroethyl)-3-methyl-2,3,4,9-tetrahydro-1H-pyrido[3,4-b]indol-1-yl)-3,5-difluorophenyl)piperidin-4-yl)piperazin-1-yl)acetyl)-2-(2,6-dioxopiperidin-3-yl)-6,7-dihydropyrrolo[3,4-f]isoindole-1,3(2H,5H)-dione] was tested. Which “Traditional Western Degradation Potency” value did it give?
**A.** A (“A”: <10 nM)

**Q.** How did the “Traditional Western Degradation Potency” value turn out when `C[C@@H]1Cc2c([nH]c3ccccc23)[C@@H](c2c(F)cc(N3CCC(N4CCN(CC(=O)N5Cc6cc7c(cc6C5)C(=O)N(C5CCC(=O)NC5=O)C7)CC4)CC3)cc2F)N1CC(F)F` (stereo partly drawn) [Compound B36, 3-(6-(2-(4-(1-(4-((1R,3R)-2-(2,2-difluoroethyl)-3-methyl-2,3,4,9-tetrahydro-1H-pyrido[3,4-b]indol-1-yl)-3,5-difluorophenyl)piperidin-4-yl)piperazin-1-yl)acetyl)-1-oxo-3,5,6,7-tetrahydropyrrolo[3,4-f]isoindol-2(1H)-yl)piperidine-2,6-dione] was run?
**A.** A (“A”: <10 nM)

**Q.** `C[C@@H]1Cc2c([nH]c3ccccc23)[C@@H](c2c(F)cc(N3CC4(CCN(CC(=O)N5Cc6cc7c(cc6C5)C(=O)N(C5CCC(=O)NC5=O)C7=O)CC4)C3)cc2F)N1CC(F)F` (stereo partly drawn) [Compound B37, 6-(2-(2-(4-((1R,3R)-2-(2,2-difluoroethyl)-3-methyl-2,3,4,9-tetrahydro-1H-pyrido[3,4-b]indol-1-yl)-3,5-difluorophenyl)-2,7-diazaspiro[3.5]nonan-7-yl)acetyl)-2-(2,6-dioxopiperidin-3-yl)-6,7-dihydropyrrolo[3,4-f]isoindole-1,3(2H,5H)-dione] was tested. Which “Traditional Western Degradation Potency” value did it give?
**A.** B (“B”: 10-100 nM)

**Q.** For `C[C@@H]1Cc2c([nH]c3ccccc23)[C@@H](c2c(F)cc(N3CC4(CCN(CC(=O)N5Cc6cc7c(cc6C5)C(=O)N(C5CCC(=O)NC5=O)C7)CC4)C3)cc2F)N1CC(F)F` (stereo partly drawn) [Compound B38, 3-(6-(2-(2-(4-((1R,3R)-2-(2,2-difluoroethyl)-3-methyl-2,3,4,9-tetrahydro-1H-pyrido[3,4-b]indol-1-yl)-3,5-difluorophenyl)-2,7-diazaspiro[3.5]nonan-7-yl)acetyl)-1-oxo-3,5,6,7-tetrahydropyrrolo[3,4-f]isoindol-2(1H)-yl)piperidine-2,6-dione], which “Traditional Western Degradation Potency” value is on record?
**A.** A (“A”: <10 nM)
